Values of other authors as cited in US20070213354A1, “Compositions and Methods for the Treatment of Multiple Sclerosis” (AmpliMed Corporation, priority 2006, published 2007).

What was measured:
L1210 sensitive = details: murine leukemia L1210 sensitive to standard cytotoxic agents; MTT, continuous exposure; cited from earlier work
L1210 resistant = details: murine leukemia L1210 resistant, P-glycoprotein producing; MTT, continuous exposure; cited from earlier work
neonatal rat myocytes = details: 1 hour drug concentration that reduces ATP/protein ratio to 50% of untreated control myocytes; read-out: IC50 Cardiotox; cited from earlier work

SMILES	IC50 (L1210 sensitive)	IC50 (L1210 resistant)	IC50 (neonatal rat myocytes)
CN(C)CCN1C(=O)c2ccc(Cl)c3cc4ccccc4c(c23)C1=O [*6-Cl]	77 nM	64 nM	4110 nM
O=C1c2cccc3cc4ccccc4c(c23)C(=O)N1CCN1CCNCC1 [2-(CH2)2—N-piperazinyl]	174 nM	463 nM	6710 nM
CN(C)CCNc1ccc2c3c(c4cccc(Cl)c4cc13)C(=O)N(CCN(C)C)C2=O [*6-NH(CH2)2N(CH3)2; 8-Cl]	3 nM	7 nM	3230 nM
CN(C)CCN1C(=O)c2cccc3cc4c(O)cccc4c(c23)C1=O [*8-OH]	108 nM	67 nM	2950 nM
CN(C)CCN1C(=O)c2cccc3cc4ccccc4c(c23)C1=O [2-(CH2)2N(CH3)2]	7 nM	7 nM	1980 nM
CC(=O)Nc1cc2c3c(c4ccccc4cc3c1)C(=O)N(CCN(C)C)C2=O [*5-NHCOCH3]	19 nM	73 nM	177 nM
CC(=O)Nc1cccc2cc3cccc4c3c(c12)C(=O)N(CCN(C)C)C4=O [*11-NHCOCH3]	243 nM	2430 nM	> 22500 nM
CN(C)CCN1C(=O)c2cccc3c(O)c4ccccc4c(c23)C1=O [*7-OH]	472 nM	212 nM	> 24100 nM
CN(C)CCN1C(=O)c2cccc3cc4ccc(I)cc4c(c23)C1=O [*10-I]	312 nM	52 nM	4790 nM
CN(C)CCNc1ccc2cc3ccccc3c3c2c1C(=O)N(CCN(C)C)C3=O [*4-NH(CH2)2N(CH3)2]	210 nM	245 nM	734 nM
O=C1c2cccc3cc4ccccc4c(c23)C(=O)N1CCN1CCOCC1 [2-(CH2)2—N-morpholinyl]	512 nM	512 nM	> 25000 nM
CN(C)CCN1C(=O)c2cccc3cc4cccc(N)c4c(c23)C1=O [*11-NH2]	678 nM	678 nM	27100 nM
CSc1ccc2c3c(c4ccccc4cc13)C(=O)N(CCN(C)C)C2=O [*6-SCH3]	0.4 nM	0.5 nM	3000 nM
CN(C)CCN1C(=O)c2cc(NC(=O)C(C)(C)C)cc3cc4ccccc4c(c23)C1=O [*5-NHCOC(CH3)3]	44 nM	15 nM	662 nM
COc1ccc2c3c(c4ccccc4cc13)C(=O)N(CCN(C)C)C2=O [*6-OCH3]	3 nM	4 nM	799 nM
CN(C)CCN1C(=O)c2ccc(NCCO)c3cc4ccccc4c(c23)C1=O [*6-NH(CH2)2OH]	6 nM	48 nM	1210 nM
CCc1ccc2c3c(c4ccccc4cc13)C(=O)N(CCN(C)C)C2=O [*6-C2H5]	183 nM	235 nM	7830 nM
CCN1CCCC(N2C(=O)c3cccc4cc5ccccc5c(c34)C2=O)C1 (centres unmarked) [2-(1-ethyl-3-piperidinyl)]	635 nM	609 nM	8760 nM
Cc1c2ccccc2c2c3c(cccc13)C(=O)N(CCN(C)C)C2=O [*7-CH3]	34 nM	70 nM	1680 nM
CCCOc1c2ccccc2c2c3c(cccc13)C(=O)N(CCN(C)C)C2=O [*6-OC3H7]	17 nM	49 nM	7760 nM

SMILES	IC50 (L1210 sensitive)	IC50 (L1210 resistant)	IC50 (neonatal rat myocytes)
O=C1c2cccc3cc4ccccc4c(c23)C(=O)N1CCCN(CCO)CCO [2-(CH2)3N(CH2CH2OH)2]	76 nM	142 nM	8910 nM
CCSc1ccc2c3c(c4ccccc4cc13)C(=O)N(CCN(C)C)C2=O [*6-SC2H5]	6 nM	5 nM	7740 nM
CN(C)CCN1C(=O)c2cccc3cc4cccc(O)c4c(c23)C1=O [*11-OH]	189 nM	189 nM	15400 nM
CN(C)c1ccc(N2C(=O)c3cccc4cc5ccccc5c(c34)C2=O)cc1 [2-(p-N(CH3)2)—C6H5)]	187 nM	1790 nM	37300 nM
CN(C)CCN1C(=O)c2cccc3c(N)c4ccccc4c(c23)C1=O [*7-NH2]	5 nM	7 nM	1950 nM
Cc1ccc2cc3cccc4c3c(c2c1)C(=O)N(CCN(C)C)C4=O [*10-CH3]	41 nM	54 nM	1000 nM
CC(=O)Nc1ccc2cc3cccc4c3c(c2c1)C(=O)N(CCN(C)C)C4=O [*10-NHCOCH3]	49 nM	219 nM	7790 nM
CN(C)CCN1C(=O)c2cccc3cc4cc(Cl)ccc4c(c23)C1=O [*9-Cl]	8 nM	8 nM	1540 nM
CN(C)CCOc1ccc2c3c(c4ccccc4cc13)C(=O)N(CCN(C)C)C2=O [*6-O(CH2)2N(CH3)2]	0.2 nM	1 nM	5440 nM
CN(C)CCN1C(=O)c2ccc(I)c3cc4ccccc4c(c23)C1=O [*6-I]	416 nM	416 nM	43700 nM
CC(=O)Nc1ccc2c3c4c(cccc4cc2c1)C(=O)N(CCN(C)C)C3=O [*9-NHCOCH3]	114 nM	170 nM	487 nM
CN(C)CCCN1C(=O)c2cccc3cc4ccccc4c(c23)C1=O [2-(CH2)3N(CH3)2]	54 nM	82 nM	11400 nM
CN(C)CCN1C(=O)c2cccc3cc4ccc(C#N)cc4c(c23)C1=O [*10-CN]	15 nM	13 nM	105 nM
CN(C)CCN1C(=O)c2cccc3cc4cccc(Cl)c4c(c23)C1=O [*11-Cl]	1780 nM	617 nM	8230 nM
CC(=O)Nc1c2ccccc2c2c3c(cccc13)C(=O)N(CCN(C)C)C2=O [*7-NHCOCH3]	487 nM	487 nM	> 23600 nM
CNCCN1C(=O)c2cccc3cc4ccccc4c(c23)C1=O [2-(CH2)2NHCH3]	10 nM	21 nM	7060 nM
CN(C)CCNc1ccc2c3c(c4ccccc4cc13)C(=O)N(CCN(C)C)C2=O [*6-NH(CH2)2N(CH3)2]	0.04 nM	0.04 nM	4190 nM
COc1cccc2c3c4c(cccc4cc12)C(=O)N(CCN(C)C)C3=O [*8-OCH3]	13 nM	18 nM	806 nM
CN(C)CCN1C(=O)c2c(Cl)ccc3cc4ccccc4c(c23)C1=O [*4-Cl]	10 nM	15 nM	900 nM
CN(C)CCN1C(=O)c2cccc3cc4ccc(NC(=O)C(C)(C)C)cc4c(c23)C1=O [*10-NHCOC(CH3)3]	200 nM	200 nM	11000 nM

SMILES	IC50 (L1210 sensitive)	IC50 (L1210 resistant)	IC50 (neonatal rat myocytes)
CN(C)CCN1C(=O)c2cccc3c(Cl)c4ccccc4c(c23)C1=O [*7-Cl]	154 nM	206 nM	10800 nM
Cc1ccc2c3c(c4ccccc4cc13)C(=O)N(CCN(C)C)C2=O [*6-CH3]	7 nM	27 nM	989 nM
CN(C)CCN1C(=O)c2cccc3cc4ccc(N)cc4c(c23)C1=O [*10-NH2]	3 nM	3 nM	943 nM
O=C1c2cccc3cc4ccccc4c(c23)C(=O)N1Cc1ccccn1 [2-CH2-2-pyridyl]	26700 nM	26700 nM	> 25000 nM
CN(C)CCN1C(=O)c2cccc3cc4c([N+](=O)[O-])cccc4c(c23)C1=O [*8-NO2]	50 nM	20 nM	650 nM
Cc1ccc2cc3ccccc3c3c2c1C(=O)N(CCN(C)C)C3=O [*4-CH3]	54 nM	68 nM	1360 nM
CN(C)CCN1C(=O)c2cccc3cc4ccc([N+](=O)[O-])cc4c(c23)C1=O [*10-NO2]	25 nM	25 nM	801 nM
COc1cccc2c1C(=O)c1c(O)c3c(c(O)c1C2=O)C[C@@](O)(C(=O)CO)C[C@@H]3O[C@H]1C[C@H](N)[C@H](O)[C@H](C)O1 [Doxorubicin, reference compound]	35 nM	3880 nM	10200 nM
CN(C)CCN1C(=O)c2ccc(O)c3cc4ccccc4c(c23)C1=O [*6-OH]	217 nM	145 nM	> 24100 nM
O=C1c2cccc3cc4ccccc4c(c23)C(=O)N1CCNCCO [2-(CH2)2NH(CH2)2OH]	18 nM	41 nM	943 nM
O=C1c2cccc3cc4ccccc4c(c23)C(=O)N1CCN1CCCCC1 [2-(CH2)2N(CH2)5]	51 nM	51 nM	10400 nM
CCN1CCCC1CN1C(=O)c2cccc3cc4ccccc4c(c23)C1=O (centres unmarked) [2-CH2-(1-ethyl-2-pyrrolidinyl)]	36 nM	55 nM	15200 nM
CCOc1c2ccccc2c2c3c(cccc13)C(=O)N(CCN(C)C)C2=O [*7-OC2H5]	63 nM	50 nM	5300 nM
CN(C)CCN1C(=O)c2cccc3cc4cc(N)ccc4c(c23)C1=O [*9-NH2]	3 nM	16 nM	813 nM
CN(C)CCN1C(=O)c2ccc(N)c3cc4ccccc4c(c23)C1=O [*6-NH2]	5 nM	27 nM	1490 nM
CC(=O)Nc1ccc2cc3ccccc3c3c2c1C(=O)N(CCN(C)C)C3=O [*4-NHCOCH3]	608 nM	560 nM	> 24300 nM
CCOc1ccc2cc3cccc4c3c(c2c1)C(=O)N(CCN(C)C)C4=O [*10-OC2H5]	25 nM	50 nM	11300 nM
CN1CCCC1CCN1C(=O)c2cccc3cc4ccccc4c(c23)C1=O (centres unmarked) [2-(CH2)2-(1-methyl-2-pyrrolidinyl)]	51 nM	56 nM	7080 nM
O=C1c2cccc3cc4ccccc4c(c23)C(=O)N1Cc1cccnc1 [2-CH2-3-pyridyl]	1870 nM	2670 nM	> 25000 nM
CN(C)CCN1C(=O)c2cccc3cc4ccc(F)cc4c(c23)C1=O [*10-F]	8 nM		456 nM
